Reference: patent US20110275670A1, “New Compounds VII” (priority 2008, published 2011)
pEC50: −log10 of the molar value.

What was measured:
JEG-3 cells [1] = test: JEG-3 protocol: [3H]-thymidine incorporation (leptin assay in non-recombinant system); assay type: cell-based; conditions: FIG. 4
Method: In JEG-3 cells (choriocarcinoma cell line) leptin is able to stimulate proliferation up to 3 fold (Biol. Reprod. (2007) 76: 203-10). […] The radioactivity incorporated by the cells is an index of their proliferative activity and is measured in counts per minute (CPM) with a liquid scintillation beta counter.
This finding can be applied to test whether a compound is able to either reproduce the effect of leptin on cell proliferation (leptin receptor agonist mimetic) (i.e., a given compound will cause an increase in incorporated [^3H]-Thymidine by the cells) or to inhibit the effect of leptin (antagonistic effect) by preventing the leptin-mediated increase in [^3H]-thymidine incorporation.
This approach has the advantage of using a non-recombinant system and has reasonable reproducibility and robustness.

JEG-3 cells [2] = conditions: Biol. Reprod. (2007) 76: 203-10; cited from earlier work

pEC50 (JEG-3 cells [1]; JEG-3 cells (choriocarcinoma cell line), read-out: EC50, concentration-dependent increase in [3H]-thymidine incorporation): 8.68
Substance: Leptin: a hormone synthesized in fat cells that is believed to act in the hypothesis to reduce food intake and body weight
concentration of maximal effect on [3H]-thymidine incorporation (JEG-3 cells [1]; JEG-3 cells): 100 nM
stimulation of proliferation (JEG-3 cells [2]): up to 3 fold
